# Reference: patent US20250145598A1, “ACID CERAMIDASE INHIBITORS AND USES THEREOF” (The Regents of the University of California, priority 2021, published 2025)
# Biological target: T1, Acid ceramidase (Homo sapiens, UniProt Q13510)
# T1 sequence (Q13510 22-395): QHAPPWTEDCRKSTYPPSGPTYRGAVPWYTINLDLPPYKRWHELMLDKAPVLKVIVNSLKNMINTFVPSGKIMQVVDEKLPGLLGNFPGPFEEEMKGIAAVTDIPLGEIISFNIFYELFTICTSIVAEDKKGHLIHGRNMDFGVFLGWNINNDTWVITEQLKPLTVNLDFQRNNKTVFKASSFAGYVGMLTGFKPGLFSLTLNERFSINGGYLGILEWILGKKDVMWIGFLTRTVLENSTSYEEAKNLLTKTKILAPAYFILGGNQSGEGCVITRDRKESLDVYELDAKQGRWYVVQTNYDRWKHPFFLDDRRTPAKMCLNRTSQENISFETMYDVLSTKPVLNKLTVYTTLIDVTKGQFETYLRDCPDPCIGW
# Test: Acid ceramidase assay (AC in vitro IC50)
# Format: biochemical
# Conditions: Acid ceramidase assay data of example compounds
row,IC50 [µM],SMILES
1,> 3,"CS(=O)(=O)c1ccc(COc2ccc(-c3cn(C(=O)NCCN4Cc5ccccc5C4)cn3)cc2)cc1 [AC2020601-0402, N-(2-(isoindolin-2-yl)ethyl)-4-(4-(4-(methylsulfonyl)benzyloxy)phenyl)-1H-imidazole-1-carboxamide]"
2,< 0.3,"CS(=O)(=O)c1ccc(COc2ccccc2-c2cn(C(=O)NCC3CN(c4ccccc4)C3)cn2)cc1 [AC2020601-0456, 4-(2-(4-(methylsulfonyl)benzyloxy)phenyl)-N-((1-phenylazetidin-3-yl)methyl)-1H-imidazole-1-carboxamide]"
